Test results: patent publication US10920265B2, “Compounds and methods for detection of enzymes that remove methyl succinyl groups from epsilon-amino lysine moieties” (Enzo Life Sciences, Inc., priority 2011, dated 2021)
*: point of attachment. AMC = Cc1cc(=O)oc2cc(N*)ccc12

Tests used:
SIRT5 = target: T1, SIRT5 (Homo sapiens, UniProt Q9NXA8); details: high and uncertain; maximum substrate concentration of 5 mM; read-out: Km estimate; cited from earlier work
T1 sequence (Q9NXA8 37-310): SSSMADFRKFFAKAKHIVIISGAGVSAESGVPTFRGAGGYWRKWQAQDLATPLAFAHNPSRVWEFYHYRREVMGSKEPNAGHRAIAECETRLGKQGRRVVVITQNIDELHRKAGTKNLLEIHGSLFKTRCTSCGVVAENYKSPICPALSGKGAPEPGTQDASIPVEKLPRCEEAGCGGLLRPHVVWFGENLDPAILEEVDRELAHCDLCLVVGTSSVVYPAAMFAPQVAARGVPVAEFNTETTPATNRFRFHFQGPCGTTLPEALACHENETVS

[1] = target: T2, bovine pancreatic trypsin (Bos taurus, UniProt P00760); assay: Trypsin release of AMC from lysyl-AMC compounds; type: biochemical; details: 1 μM compound, trypsin 2 mg/ml, room temperature
T2 construct: purchased ENZO Life Sciences BML-KI105 or BML-KI176; host or cells: bovine pancreas
T2 sequence (P00760 24-246): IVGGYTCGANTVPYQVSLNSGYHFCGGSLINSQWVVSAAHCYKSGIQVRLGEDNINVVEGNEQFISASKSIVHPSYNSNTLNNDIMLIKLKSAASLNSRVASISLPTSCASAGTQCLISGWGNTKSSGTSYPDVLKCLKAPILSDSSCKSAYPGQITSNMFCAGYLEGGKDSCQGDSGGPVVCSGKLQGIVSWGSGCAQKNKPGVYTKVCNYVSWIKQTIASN
Method: FIG. 2 is a graph showing that trypsin treatment releases fluorescent AMC from Ac-Lys-AMC but not Ac-Lys(Succinyl)-AMC. Samples (100 μl) of 1 μM Ac-Lys-AMC and 1 μM Ac-Lys(Succinyl)-AMC in a buffered solution (50 mM Tris/HCl, pH 8.0, 137 mM NaCl, 2.7 mM KCl, 1 mM MgCl2) were treated with bovine pancreatic trypsin (2 mg/ml) for the indicated times at room temperature. Samples were in the wells of a 96-well, ½-area white microplate and fluorescence was measured at 1 min. intervals at the excitation and emission wavelengths for free AMC (Excitation: 360 nm; Emission: 460 nm) in a Synergy 2 microplate reading fluorimeter (BioTek), Gain 40. The data points at 0 min. represent the fluorescence of equivalent 1 μM Ac-Lys(Succ.)-AMC and 1 μM Ac-Lys-AMC samples in the absence of trypsin.
As noted in the Background of the Invention section above, the protease trypsin catalyzes the hydrolytic cleavage of amide bonds on the carboxyl side of unmodified lysine residues. Hydrolytic cleavage of lysyl amide bonds with AMC or rhodamine 110 (dye components of Compounds 1 and 2, respectively) releases the free amino forms of the dyes. This elicits an upward shift of the dye's fluorescence emission peak wavelength (bathochromic shift), for example to 460 nm for AMC or 530 nm for rhodamine 110. If succinylation of the ε-amino function of the lysine moieties in compounds such as 1 and 2 renders the amide bond between the carbonyl of lysine and the amino of dye groups such as AMC or rhodamine resistant to trypsin cleavage then, upon desuccinylation, the lysine/dye amide bond would become cleavable by trypsin. Note that removal of a single succinyl group from 2, followed by cleavage of the desuccinylated lysine would yield a compound with a single free amino function, Ac-K(Succ.)-R110. Monoamides of rhodamine 110 also have increased fluorescence emission at 530 nm relative to 2, although they are less fluorescent than rhodamine 110 itself (Liu et al., 1999). Thus, monitoring the fluorescence at the peak wavelength of the amino form of the dye would allow the desuccinylation reaction to be quantified. A schematic for such an assay is depicted for Compound 1 and SIRT5 in FIG. 1. Trypsin treatment (2 mg/ml) elicits an immediate increase in the fluorescence of a solution of Ac-Lys-AMC (Compound 6—FIG. 1) at the excitation and emission wavelengths of free AMC (Ex. 360 nm; Em. 460 nm), with maximum fluorescence achieved in 2 min. or less and ˜⅔ of that maximum occurring in 1 min. (FIG. 2).

HeLa cell extracts = assay: HeLa cell extract Ac-Lys(ε-succinyl)-AMC desuccinylation activity; type: biochemical, human; details: 50 μM substrate, 500 μM NAD^+, no inhibitor, 2 hr., 37° C.
Method: Enzyme and extract catalog products obtained from ENZO Life Sciences included: HDAC1 (Cat. # BML-SE456), HDAC2 (Cat. # BML-SE500), HDAC3 (Cat. # BML-SE507), HDAC3/NCOR1 Complex (Cat. # BML-SE515), HDAC6 (Cat. # BML-SE508), HDAC8 (Cat. # BML-SE145), HDAC10 (Cat. # BML-SE559), HDAC11 (Cat. # BML-SE560), SIRT1 (Cat. # BML-SE239), SIRT2 (Cat. # BML-SE251), SIRT3 (Cat. # BML-SE270), SIRT5 (Cat. # BML-SE555), HeLa Nuclear Extract (Cat. # BML-KI140), Trypsin (“Fluor de Lys Developer”, 80 mg/ml bovine trypsin in 1 mM HCl, Cat. # BML-KI105 or “Fluor de Lys Developer II”, 80 mg/ml bovine trypsin in 1 mM HCl, Cat. # BML-KI176). […] Enzymes obtained from BPS Bioscience, San Diego, Calif. included: human recombinants SIRT4 (Cat. #50015), SIRT6 (Cat. #50017), SIRT7 (Cat. #50018). HeLa whole cell extract was obtained from HeLa S3 cells (American Type Culture Collection) grown in a medium of MEM/10% fetal bovine serum (FBS) as follows: 1) 9×10^6 cells were suspended by trypsinization, followed by a phosphate buffered saline (PBS) rinse and addition of MEM/10% FBS (1.5 mL) to eliminate trypsin before transfer to a 15 mL conical tube; 2) cells were sedimented by a low speed centrifugation, gently resuspended in PBS and sedimented again and supernatant removed; 3) lysis was induced by resuspension in 0.8 mL 50 mM Tris/HCl, pH 8.0 with the non-denaturing detergent NP-40 (0.5%), placement on ice and brief vortexing every 5 min. for 30 min.; 4) 100 μl of a concentrated salt solution in the same buffer was added in order to bring the final buffer composition to 50 mM Tris/C1, pH 8.0, 137 mM NaCl, 2.7 mM KCl, 1 mM MgCl2, 0.5% NP-40; 5) particulate matter was cleared by centrifugation and the cleared lysate supernatant transferred to a 1.5 mL Eppendorf tube and stored on ice until use in activity assays.
Assays were performed at 37° C., according to the manufacturer's instructions for the “SIRT1 Fluorometric Drug Discovery Kit” from Enzo Life Sciences (ELS) (Cat. # BML-AK555), with exceptions described as follows. […]

Row | Trypsin cleavage / change in fluorescence ([1]; listed as Ac-Lys(Succ.)-AMC) | Compound | Km (SIRT5) | Trypsin cleavage / change in fluorescence [1] | Maximum fluorescence increase over 0 hr./NL (HeLa cell extracts)
1 |  | Ac-Arg-His-Lys-Lys(ε-acetyl)-AMC (Ac-RHKK(Ac)-{AMC}; SMILES CC(=O)NCCCC[C@H](NC(=O)[C@H](CCCCN)NC(=O)[C@H](Cc1c[nH]cn1)NC(=O)[C@H](CCCNC(=N)N)NC(C)=O)C(=O)Nc1ccc2c(C)cc(=O)oc2c1) [Ac-RHKK(Ac)-AMC, p53 peptide fluorogenic deacetylase substrate, Cat. # BML-KI177, reference compound] | 8.9 mM |  | 
2 | no change in fluorescence | CC(=O)N[C@@H](CCCCNC(=O)CCC(=O)O)C(=O)Nc1ccc2c(C)cc(=O)oc2c1 [Compound 1, N—(N^α-acetyl-L-Lysine(N^ε-succinyl))-AMC] |  | complete resistance to the trypsin cleavage | 22,000
